Tests used:
Type in all cases: in vivo
[1] = system: rats in conflict situation; experiment: Conflict situation model of Vogel, ethanol in drinking bowl; conditions: solution in the drinking bowl, mixture 10:1 volumetric ratio
Description: Anxiolytic effect was evaluated in accordance with the number of punished water intakes.

[2] = system: patients suffering from definite rheumatoid arthritis (oligoarthritis); experiment: Clinical trial in rheumatoid arthritis (oligoarthritis), duration of effect of hydrocortisone injections; conditions: 20 patients, hydrocortisone 20-25 mg peri- or intra-articular; activated form per os over 8 weeks
Description: Twenty patients suffering from definite rheumatoid arthritis (oligoarthritis) necessitating peri- or intra-articular injections of hydrocortisone were included in the clinical trial of influences of activated form (ultra-low doses) of anti-inflammatory agent—hydrocortisone on the therapeutic activity of hydrocortisone in relation with arthritis manifestations. At baseline all patients required injections of 20-25 mg hydrocortisone 2-3 times a week (up on request). Over 8 weeks patients received activated form of hydrocortisone in ultra-low doses per orally—1 tablet for dissolution in the mouth (activated form—mixture of homeopathic dilutions C12+C30+C200, equivalent concentration 10^−24M mass concentration) together with injections. Impacts of activated form were evaluated in accordance with duration of periods, when patients were independent from hydrocortisone injections.

[3] = system: rats in conflict situation; experiment: Conflict situation model of Vogel, phenazepam
Description: Anxiolytic activity of phenazepam was studied by conflict situation model of Vogel J., 1971 in rats. Phenazepam was applied in 1) therapeutic dose, 2) activated form or 3) combination of therapeutic dose of phenazepam and activated form of the same medication. Therapeutic doses of Phenazepam (1 mg/kg) were injected intraperitoneally; activated form containing the mixture of homeopathic dilutions C12+C30+C200, was given at 2.5 ml/kg of animal's body weight intraperitoneally; combined treatment included simultaneous injections of both forms in two different syringes. The effect was evaluated after 20 minutes following to medication injections by the quantity of punished water intakes.

[4] = system: Rat model of adjuvant arthritis; experiment: Rat model of adjuvant arthritis (complete Freund's adjuvant), prednisone; conditions: rats, into the stomach; prednisone 2 mg/kg; activated form D24+D60 2.5mg/kg; combined 10:1
Description: Rat model of adjuvant arthritis induced by single subplantar injection of 100 μl of complete Freund's adjuvant was applied for evaluation of anti-inflammatory activity of glucocorticosteroid agent—prednisone in following treatment choices: a) therapeutic dose, b) activated (potentiated) form (ultra-low dose), c) combined treatment with therapeutic dose and activated form. Soon after the injection of complete Freund's adjuvant animals (10 rats per group) received prednisone in therapeutic dose, in activated form or their combination (control—distilled water)—for 14 days.
2 mg/kg prednisone (water solution) was given into the stomach; activated form of prednisone in ultra-low doses—mixture of homeopathic dilutions D24+D60 was injected in the form of water solution at the dose of 2.5mg/kg of animal's body weight into stomach; both forms mixed at 10:1 ratio were injected at one time during combined treatment.
Severity of inflammatory damage to each extremity (0 to 4) and overall index of arthritis severity (0 to 16) were assessed once per 1-2 days. Functional disturbances, erythema, edema and deformation of extremities were taken into account. Anti-inflammatory efficacy of the medications was evaluated in accordance with reduction of overall index of arthritis severity by the 2-3rd and 14th days of treatment.

[5] = system: patients suffering from generalized anxiety syndrome; experiment: Hamilton's scale of anxiety in patients with generalized anxiety syndrome, diazepam
Text: Benzodiazepines represent reference medications for the treatment of anxious states. However, application of benzodiazepines is frequently associated with adverse effects that require dose reduction to minimal effective doses. Investigation of impacts induced by ultra-low doses of activated form of diazepam on the anxiolytic activity of therapeutic doses of diazepam was accomplished in 20 patients suffering from generalized anxiety syndrome characterized with the anxiety level consistent with at least 20 grades of Hamilton's scale of anxiety. Patients received tablets containing activated form of diazepam in ultra-low doses (homeopathic dilution C200, equivalent concentration—10^−400M mass concentration)—1 tablet 4 times a day for 14 days. Thereafter, beginning from 15th to 30th day of therapy patients were took per oral diazepam at the dose of 2 mg qid day (daily dose—8 mg) followed by administration of ultra-low doses of activated form of the very medication 4 tablets per day for 7 days and by combined treatment implicating simultaneous intake of activated form (4 tablets a day) and diazepam (8 mg per day) for 14 days. Anxiety level was evaluated by means of Hamilton's scale at baseline and after each stage of therapy.

For `CCO` [Ethanol 10%, ethanol], the “Number of punished water intakes” value [1] was 317.2 ± 41.0.

For `C[C@]12CCC(=O)C=C1CC[C@@H]1[C@@H]2[C@@H](O)C[C@@]2(C)[C@H]1CC[C@]2(O)C(=O)CO` [Hydrocortisone, hydrocortisone], the “Duration effects of injections (time lag between injections "upon request")” value [2] was 2.8 ± 0.3 days.

In the case of `O=C1CN=C(c2ccccc2Cl)c2cc(Br)ccc2N1` [Phenazepam, phenazepam], the “Number of punished water intakes” value ([3]; rats, intraperitoneally, 20 minutes after injection, phenazepam 1 mg/kg, activated form 2.5 ml/kg) is reported as 415.67 ± 113.96 and the “anxiolytic activity (in words)” value ([3]; versus control) is reported as “possesses anxiolytic activity”.

`C[C@]12C=CC(=O)C=C1CC[C@@H]1[C@@H]2C(=O)C[C@@]2(C)[C@H]1CC[C@]2(O)C(=O)CO` [Prednisone, prednisone] was tested, and the “Arthritis severity index by 14th day of therapy” value [4] was 5.4 ± 1.7 grades and the “Arthritis severity index by the 2-3rd day of therapy” value [4] was 2.1 ± 0.4 grades.

With `CN1C(=O)CN=C(c2ccccc2)c2cc(Cl)ccc21` [diazepam] the “Overall level of anxiety in accordance with Hamilton's scale” value ([5]; 20 patients, after the stage of therapy: activated form 2 weeks, then diazepam 8 mg/day, last stage combined 14 days) was 16.2 ± 2.5 grades, the improvement versus baseline ([5]; Hamilton's scale, after the stage of therapy) was 26% and the “anxiolytic effect (in words)” value ([5]; dynamic changes in anxiety level) was “does not yield achievement of pronounced decline of anxiety”.

— patent US20070123518A1, “Product designed to protentiate the therapeutic effects and to enhance the action of medicinal preparations” (priority 2003, published 2007)
